Results reported in ChEMBL document CHEMBL5137112, “Semisynthetic Transformations on (+)-Boldine Reveal a 5-HT2A/2CR Antagonist” (J Nat Prod, 2022).
pIC50, pKi: −log10 of the molar value.

What was measured:
Homo sapiens [1] = organism: Homo sapiens; assay: Selectivity ratio of Ki for 5-HT2A receptor (unknown origin) to Ki for 5-HT2B receptor (unknown origin)
[2] = target: Serotonin 2 receptors; 5-HT2a & 5-HT2c (Homo sapiens) (UniProt P28223+P28335); assay: Selectivity ratio of Ki for 5-HT2A receptor (unknown origin) to Ki for 5-HT2C receptor (unknown origin); assay type: protein assay
Homo sapiens [3] = organism: Homo sapiens; assay: Selectivity ratio of Ki for 5-HT2B receptor (unknown origin) to Ki for 5-HT2C receptor (unknown origin)
[4] = target: T1, 5-hydroxytryptamine receptor 2B (Homo sapiens, UniProt P41595); assay: Displacement of [3H]LSD from 5-HT2B receptor (unknown origin) assessed as inhibition constant incubated for 90 mins by MicroBeta scintillation counting method
[5] = target: T2, 5-hydroxytryptamine receptor 2C (Homo sapiens, UniProt P28335); assay: Displacement of [3H]Mesulergine from 5-HT2C receptor (unknown origin) assessed as inhibition constant incubated for 90 mins by MicroBeta scintillation counting method
T2 sequence (P28335 whole entry): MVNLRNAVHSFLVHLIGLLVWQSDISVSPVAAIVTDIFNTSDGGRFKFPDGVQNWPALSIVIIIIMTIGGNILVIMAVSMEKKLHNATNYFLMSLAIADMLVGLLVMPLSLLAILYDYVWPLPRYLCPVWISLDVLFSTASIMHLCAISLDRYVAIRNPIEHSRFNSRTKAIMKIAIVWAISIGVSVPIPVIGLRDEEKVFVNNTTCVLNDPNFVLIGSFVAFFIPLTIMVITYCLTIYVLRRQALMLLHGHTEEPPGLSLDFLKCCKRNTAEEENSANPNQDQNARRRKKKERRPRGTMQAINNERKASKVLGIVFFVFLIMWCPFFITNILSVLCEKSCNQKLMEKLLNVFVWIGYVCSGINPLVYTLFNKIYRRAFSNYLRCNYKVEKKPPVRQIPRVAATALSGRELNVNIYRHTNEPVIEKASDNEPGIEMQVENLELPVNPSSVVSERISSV

[6] = target: T3, 5-hydroxytryptamine receptor 2A (Homo sapiens, UniProt P28223); assay: Displacement of [3H]Ketanserin from 5-HT2A receptor (unknown origin) assessed as inhibition constant incubated for 90 mins by MicroBeta scintillation counting method
[7] = target: T1, 5-hydroxytryptamine receptor 2B; assay: Antagonist activity at 5-HT2B receptor (unknown origin) incubated for 60 mins followed by 10 mins incubation in dark at room temperature by FLIPR method; assay type: functional
[8] = target: T3, 5-hydroxytryptamine receptor 2A; assay: Antagonist activity at 5-HT2A receptor (unknown origin) incubated for 60 mins followed by 10 mins incubation in dark at room temperature by FLIPR method; assay type: functional
[9] = target: T2, 5-hydroxytryptamine receptor 2C; assay: Antagonist activity at 5-HT2C receptor (unknown origin) incubated for 60 mins followed by 10 mins incubation in dark at room temperature by FLIPR method; assay type: functional

T1 sequence (P41595 whole entry): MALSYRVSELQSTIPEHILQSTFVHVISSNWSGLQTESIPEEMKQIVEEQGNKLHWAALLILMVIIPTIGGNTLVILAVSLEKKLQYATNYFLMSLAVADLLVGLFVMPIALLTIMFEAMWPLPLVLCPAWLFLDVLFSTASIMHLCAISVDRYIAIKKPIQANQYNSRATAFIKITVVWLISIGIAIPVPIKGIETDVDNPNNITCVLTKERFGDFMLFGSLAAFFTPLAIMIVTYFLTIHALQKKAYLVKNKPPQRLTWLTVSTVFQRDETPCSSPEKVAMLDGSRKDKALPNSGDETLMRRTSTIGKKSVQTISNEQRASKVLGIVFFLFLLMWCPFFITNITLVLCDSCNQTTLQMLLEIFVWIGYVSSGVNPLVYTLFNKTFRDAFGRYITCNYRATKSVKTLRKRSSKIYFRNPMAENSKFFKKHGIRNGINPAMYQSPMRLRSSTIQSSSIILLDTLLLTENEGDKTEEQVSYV
T3 sequence (P28223 whole entry): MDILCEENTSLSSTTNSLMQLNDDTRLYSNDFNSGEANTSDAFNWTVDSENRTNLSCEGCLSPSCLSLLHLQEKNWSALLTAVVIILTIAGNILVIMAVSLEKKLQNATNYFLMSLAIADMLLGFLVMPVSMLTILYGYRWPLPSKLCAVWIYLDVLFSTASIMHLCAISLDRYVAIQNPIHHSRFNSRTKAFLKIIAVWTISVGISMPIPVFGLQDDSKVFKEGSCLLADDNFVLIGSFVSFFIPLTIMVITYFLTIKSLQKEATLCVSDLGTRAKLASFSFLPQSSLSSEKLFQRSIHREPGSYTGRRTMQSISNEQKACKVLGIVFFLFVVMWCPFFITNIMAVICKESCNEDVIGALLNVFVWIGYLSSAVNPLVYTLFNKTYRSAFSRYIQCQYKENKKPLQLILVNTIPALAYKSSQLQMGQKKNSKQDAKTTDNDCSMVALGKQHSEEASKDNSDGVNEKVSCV
Serotonin 2 receptors; 5-HT2a & 5-HT2c (Homo sapiens), sequence (P28223 whole entry, looked up, one chain of several): as the sequence (P28223 whole entry) above

Structure (SMILES) | Ratio Ki (Homo sapiens [1]) | Ratio Ki [2] | Ratio Ki (Homo sapiens [3]) | pKi [4] | pKi [5] | pKi [6] | pIC50 [7] | pIC50 [8] | pIC50 [9]
COc1cc2c(cc1OCCF)C[C@H]1c3c(cc(OC)c(OC)c3-2)CCN1C | 24.1 | 2.1 | 0.1 | 7.32 | 6.27 | – | – | – | –
CCCCCCOc1cc2c(cc1OC)-c1c(OC)c(OC)cc3c1[C@H](C2)N(C)CC3 | 10.8 | 0.9 | 0.1 | 7.28 | 6.21 | – | – | – | –
Cc1nc2sccn2c(=O)c1CCN1CCC(=C(c2ccc(F)cc2)c2ccc(F)cc2)CC1 [RITANSERIN] | – | – | – | – | 9.10 | – | – | – | –
COc1cc2c(cc1OCc1ccccc1)C[C@H]1c3c(cc(OC)c(OC)c3-2)CCN1C | 1.1 | 1.2 | 1.1 | 6.72 | 6.75 | – | – | – | –
CCC(C)Oc1cc2c(cc1OC)-c1c(OC)c(OC)cc3c1[C@H](C2)N(C)CC3 (some centres undefined) | 17.1 | 1.6 | 0.1 | 7.66 | 6.62 | – | – | – | –
COc1cc2c(cc1OC(C)C)C[C@H]1c3c(cc(OC)c(OC)c3-2)CCN1C | 16.7 | 1.3 | 0.1 | 7.35 | 6.25 | – | – | – | –
CCCCC(C)Oc1cc2c(cc1OC)-c1c(OC)c(OC)cc3c1[C@H](C2)N(C)CC3 (some centres undefined) | 13.5 | 1.6 | 0.1 | 7.48 | 6.56 | – | – | – | –
CCCCOc1cc2c3c(c1OC)-c1cc(OC)c(OC)cc1C[C@@H]3N(C)CC2 | 12.5 | 4 | 0.3 | 7.82 | 7.33 | 6.73 | – | – | –
COc1cc2c(cc1OC)-c1c(OC)c(OC)cc3c1[C@H](C2)N(C)CC3 [GLAUCINE] | 8.1 | 2.9 | 0.4 | 6.92 | 6.48 | – | – | – | –
CCCC(C)Oc1cc2c3c(c1OC)-c1cc(OC)c(OC)cc1C[C@@H]3N(C)CC2 (some centres undefined) | 9.8 | 6.6 | 0.7 | 7.60 | 7.43 | 6.61 | – | – | –
COc1cc2c(cc1OC)-c1c(OC)c(OCc3ccccc3)cc3c1[C@H](C2)N(C)CC3 | 0.5 | 5.5 | 12 | 7.32 | 8.40 | 7.66 | 5.91 | 6.86 | 6.79
Cn1ccc2cc3c(cc21)CCN3C(=O)Nc1cccnc1 | – | – | – | 7.70 | – | – | – | – | –
CCCCCCOc1cc2c3c(c1OC)-c1cc(OC)c(OC)cc1C[C@@H]3N(C)CC2 | 2 | 2.6 | 1 | 6.98 | 7.09 | 6.67 | – | – | –
C=CCOc1cc2c3c(c1OC)-c1cc(OC)c(OC)cc1C[C@@H]3N(C)CC2 | 6.3 | 2 | 0.3 | 7.80 | 7.30 | 7.00 | – | – | –
COc1cc2c(cc1OC)-c1c(OC)c(OCc3ccc(Br)cc3)cc3c1[C@H](C2)N(C)CC3 | 0.06 | 0.9 | 16 | 6.44 | 7.64 | 7.70 | 5.52 | 6.79 | 6.36
CCCC(C)Oc1cc2c(cc1OC)-c1c(OC)c(OC)cc3c1[C@H](C2)N(C)CC3 (some centres undefined) | 24.4 | 1.1 | 0.05 | 8.00 | 6.66 | – | – | – | –

Structure (SMILES) | Ratio Ki (Homo sapiens [1]) | Ratio Ki [2] | Ratio Ki (Homo sapiens [3]) | pKi [4] | pKi [5] | pKi [6] | pIC50 [7] | pIC50 [8] | pIC50 [9]
COc1cc2c(cc1OC1CCCCC1)C[C@H]1c3c(cc(OC)c(OC)c3-2)CCN1C | 10.8 | 0.9 | 0.1 | 7.28 | 6.21 | – | – | – | –
COc1cc2c(cc1OC)-c1c(OC)c(OC3CCCCC3)cc3c1[C@H](C2)N(C)CC3 | 5.8 | 4.7 | 0.8 | 7.04 | 6.95 | 6.27 | – | – | –
COc1cc2c(cc1OC)-c1c(OC)c(OCC3CC3)cc3c1[C@H](C2)N(C)CC3 | 6 | 2.3 | 0.4 | 7.40 | 6.98 | 6.62 | – | – | –
COc1cc2c(cc1OCc1ccc(Br)cc1)C[C@H]1c3c(cc(OC)c(OC)c3-2)CCN1C | 10 | 1.5 | 0.1 | 7.38 | 6.55 | – | – | – | –
COc1cc2c(cc1OC)-c1c(OC)c(OCCF)cc3c1[C@H](C2)N(C)CC3 | – | – | 0.6 | 6.20 | 5.95 | – | – | – | –
COc1cc2c(cc1OCC1CC1)C[C@H]1c3c(cc(OC)c(OC)c3-2)CCN1C | 20.1 | 1.1 | 0.05 | 7.54 | 6.27 | – | – | – | –
CCCCCOc1cc2c(cc1OC)-c1c(OC)c(OC)cc3c1[C@H](C2)N(C)CC3 | 4.2 | 0.5 | 0.1 | 7.24 | 6.30 | – | – | – | –
C=CCOc1cc2c(cc1OC)-c1c(OC)c(OC)cc3c1[C@H](C2)N(C)CC3 | 7 | 0.7 | 0.1 | 7.26 | 6.27 | – | – | – | –
CCOc1cc2c(cc1OC)-c1c(OC)c(OC)cc3c1[C@H](C2)N(C)CC3 | 10.2 | 1.9 | 0.2 | 7.10 | 6.37 | – | – | – | –
CCCCC(C)Oc1cc2c3c(c1OC)-c1cc(OC)c(OC)cc1C[C@@H]3N(C)CC2 (some centres undefined) | 1.9 | 2.2 | 1 | 7.09 | 7.14 | 6.81 | – | – | –
CCOc1cc2c3c(c1OC)-c1cc(OC)c(OC)cc1C[C@@H]3N(C)CC2 | 3.3 | 1.5 | 0.5 | 6.82 | 6.47 | 6.29 | – | – | –
CCCCCOc1cc2c3c(c1OC)-c1cc(OC)c(OC)cc1C[C@@H]3N(C)CC2 | 2.9 | 3.5 | 1 | 7.33 | 7.40 | 6.86 | – | – | –
CCC(C)Oc1cc2c3c(c1OC)-c1cc(OC)c(OC)cc1C[C@@H]3N(C)CC2 (some centres undefined) | 3.1 | 3.1 | 1 | 7.02 | 7.03 | 6.53 | – | – | –
COc1cc2c(cc1OC)-c1c(OC)c(OC(C)C)cc3c1[C@H](C2)N(C)CC3 | 3.8 | 3.1 | 0.8 | 6.81 | 6.72 | 6.23 | – | – | –
CCCCOc1cc2c(cc1OC)-c1c(OC)c(OC)cc3c1[C@H](C2)N(C)CC3 | 4.8 | 0.6 | 0.1 | 7.25 | 6.35 | – | – | – | –
